According to patent US7531320B2, “Modulation of β-catenin/TCF-activated transcription” (priority 2003, dated 2009):

Biological target: T1, CBP (Homo sapiens, UniProt Q92793)
T1 construct: endogenous in cells; host or cells: SW480 nuclear extract
Assay: COMPOUND 2 streptavidin-agarose affinity pull-down from SW480 nuclear extracts
Assay type: binding
Conditions: SW480 nuclear extracts, 20 μM preincubation
Protocol: FIG. 1. COMPOUND 1 inhibits β-catenin/TCF transcription. • A(i) and A(ii). Structures of COMPOUND 1, COMPOUND 2, COMPOUND 3, COMPOUND 4, and COMPOUND 5. • B(i) and B(ii). […] SW480 cells (10^5), (FIG. 1B(i)), were transfected with β-catenin/TCF luciferase construct. Cells were treated with COMPOUND 1 (1-64 μM). 24 hours post treatment lysates were prepared and subjected to dual luciferase assay. The data is represented in different form in FIG. 1B(ii). • C. COMPOUND 1 has no effect on NFAT reporter construct. Stably transfected Jurkat cells, right panel, with an NFAT reporter construct, were stimulated with PMA (10 ng/ml)/lonomycin (1 μg/ml), and treated with COMPOUND 1 (0.781-50 μM). 24 hours post treatment lysates were prepared and subjected to dual luciferase assay. All experiments were performed in duplicate and the values plotted as means +/−standard deviation. • D. CBP is the molecular target of COMPOUND 1. Nuclear extracts of SW480 cells were incubated with streptavidin-agarose beads coated with COMPOUND 2 (25 μM). Beads were washed 3 times and the eluted were subjected to gel electrophoresis and immunoblotting, with anti-CBP antibodies. […] The lysates were desalted using G-25 1 cc columns (Pharmacia) to remove the unbound ^14C-labeled-COMPOUND 1, and ^14C-labeled-COMPOUND 1 incorporation was measured. […]

T1 sequence (Q92793 whole entry): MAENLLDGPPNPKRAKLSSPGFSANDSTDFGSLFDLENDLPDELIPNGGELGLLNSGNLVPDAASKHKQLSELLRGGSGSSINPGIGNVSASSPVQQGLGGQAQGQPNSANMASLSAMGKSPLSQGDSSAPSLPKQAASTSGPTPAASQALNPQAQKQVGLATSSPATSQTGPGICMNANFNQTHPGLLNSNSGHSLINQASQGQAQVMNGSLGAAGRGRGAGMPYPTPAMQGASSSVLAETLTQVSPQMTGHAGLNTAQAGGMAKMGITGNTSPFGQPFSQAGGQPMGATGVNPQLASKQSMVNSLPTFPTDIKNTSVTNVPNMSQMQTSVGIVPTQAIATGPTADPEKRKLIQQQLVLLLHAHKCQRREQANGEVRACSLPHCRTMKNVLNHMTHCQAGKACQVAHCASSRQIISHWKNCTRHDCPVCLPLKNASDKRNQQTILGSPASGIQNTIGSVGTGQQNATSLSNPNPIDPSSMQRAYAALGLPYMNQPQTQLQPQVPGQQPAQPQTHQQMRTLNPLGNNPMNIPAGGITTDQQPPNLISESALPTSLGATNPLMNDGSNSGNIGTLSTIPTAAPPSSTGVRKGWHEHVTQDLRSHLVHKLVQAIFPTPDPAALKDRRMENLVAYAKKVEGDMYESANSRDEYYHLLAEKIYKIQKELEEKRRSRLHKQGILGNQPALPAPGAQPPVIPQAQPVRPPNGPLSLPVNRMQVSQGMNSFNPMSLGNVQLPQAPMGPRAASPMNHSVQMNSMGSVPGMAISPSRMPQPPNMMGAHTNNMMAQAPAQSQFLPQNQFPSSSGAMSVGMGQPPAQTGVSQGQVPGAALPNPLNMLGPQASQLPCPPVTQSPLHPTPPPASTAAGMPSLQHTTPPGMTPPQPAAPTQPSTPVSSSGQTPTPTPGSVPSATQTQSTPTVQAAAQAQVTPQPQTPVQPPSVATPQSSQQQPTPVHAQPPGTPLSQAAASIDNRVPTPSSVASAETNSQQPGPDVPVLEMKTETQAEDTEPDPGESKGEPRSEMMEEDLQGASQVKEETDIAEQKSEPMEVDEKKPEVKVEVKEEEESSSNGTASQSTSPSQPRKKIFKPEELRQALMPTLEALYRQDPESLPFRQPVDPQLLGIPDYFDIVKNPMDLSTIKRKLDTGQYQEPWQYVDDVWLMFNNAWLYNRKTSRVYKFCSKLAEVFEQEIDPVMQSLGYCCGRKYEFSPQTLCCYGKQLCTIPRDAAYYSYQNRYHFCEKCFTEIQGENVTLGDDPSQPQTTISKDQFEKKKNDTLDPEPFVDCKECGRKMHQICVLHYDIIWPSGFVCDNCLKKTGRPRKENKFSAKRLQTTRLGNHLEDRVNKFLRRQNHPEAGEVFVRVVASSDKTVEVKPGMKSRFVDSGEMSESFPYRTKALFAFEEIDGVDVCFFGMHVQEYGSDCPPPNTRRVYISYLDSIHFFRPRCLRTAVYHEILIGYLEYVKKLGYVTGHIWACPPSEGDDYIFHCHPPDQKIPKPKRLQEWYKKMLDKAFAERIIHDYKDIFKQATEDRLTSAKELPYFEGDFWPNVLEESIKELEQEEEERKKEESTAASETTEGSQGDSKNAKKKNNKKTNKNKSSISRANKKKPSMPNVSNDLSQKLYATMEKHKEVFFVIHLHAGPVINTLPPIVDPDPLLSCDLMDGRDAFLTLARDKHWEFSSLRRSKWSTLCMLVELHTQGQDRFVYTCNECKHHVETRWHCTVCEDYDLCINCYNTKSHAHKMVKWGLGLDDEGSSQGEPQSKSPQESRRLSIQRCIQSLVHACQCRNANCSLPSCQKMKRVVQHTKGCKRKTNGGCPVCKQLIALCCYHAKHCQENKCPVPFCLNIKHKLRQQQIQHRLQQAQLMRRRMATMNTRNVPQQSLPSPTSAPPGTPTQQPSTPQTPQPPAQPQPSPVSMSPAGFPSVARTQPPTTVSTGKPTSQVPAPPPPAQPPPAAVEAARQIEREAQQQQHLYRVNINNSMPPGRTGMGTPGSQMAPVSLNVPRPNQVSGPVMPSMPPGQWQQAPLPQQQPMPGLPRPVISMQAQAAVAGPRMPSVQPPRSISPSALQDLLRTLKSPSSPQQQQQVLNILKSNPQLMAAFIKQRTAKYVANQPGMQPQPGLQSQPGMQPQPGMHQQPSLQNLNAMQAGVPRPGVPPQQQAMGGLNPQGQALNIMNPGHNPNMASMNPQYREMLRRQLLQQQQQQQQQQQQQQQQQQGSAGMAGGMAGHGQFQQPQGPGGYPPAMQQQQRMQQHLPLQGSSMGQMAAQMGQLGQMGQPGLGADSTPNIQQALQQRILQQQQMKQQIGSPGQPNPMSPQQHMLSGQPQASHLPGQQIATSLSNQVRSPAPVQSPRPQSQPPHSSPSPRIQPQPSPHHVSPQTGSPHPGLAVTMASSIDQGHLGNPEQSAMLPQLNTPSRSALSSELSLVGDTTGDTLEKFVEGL

## O=C1C(Cc2ccc(O)cc2)N2C(=O)CCN(C(=O)NCc3ccccc3)C2CN1Cc1cccc2ccccc12 (stereo not shown) [COMPOUND 1]
  Effect of preincubation with COMPOUND 1 on CBP binding to COMPOUND 2: blocked the binding of CBP
